assay: recombinant barcode read abundance after kanamycin selection (control-corrected) (log10(CPM+1)); higher = more efficient recombination; sequences stand for … in AGTGCAGAGAAAATCGGCCAGTTTTCTCTGCCTGCAGTCCGCATGCCGT…AGATTTATGCAGCGGACTGCCTTTCTCCCAAAGTGATAAACCGGACAGTATCATGGACCGGTTTTCCCGGTAATCCGTATTTGCAAGGTTGGTTTCACT; site = the 11-nt target
Procedure, shortened: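 Targets and IS621 bridge RNA target-binding loops were paired in oligos, each with a promoter, a barcode and the J23119-driven first 104 bridge RNA bases. A vector carrying the remaining 73 bp and a T7-inducible recombinase received these by Gibson cloning, and the pool was co-electroporated into E. coli with a donor plasmid. Duplicate plates contained chloramphenicol/ampicillin LB agar (control) or chloramphenicol/ampicillin/kanamycin with 0.1 mM IPTG. Recombination efficiency comes from averaged, control-corrected counts per million of recombinant-junction barcodes, reported as log10(CPM+1).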
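Also: IS621 recombinase and bridge RNA in Escherichia coli cells.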

| Sequence | recombinant barcode read abundance (log10) |
| --- | --- |
| GTGAGTCCTTGGGTTCTAACCTGTTGCGG (site GTAAGTCCTTC) | 0.24 |
| GTGAGTCCTTGGGTTCTAACCTGTTGCGG (site GTGAGTCCTCC) | 2.42 |
| GTGATGTCTTGGGTTCTAACCTGTTGCCT (site GAGATGTCTAG) | 0.701 |
| GTGATGTCTTGGGTTCTAACCTGTTGCCT (site GCGATGTCTAG) | 0.321 |
| GTGATGTCTTGGGTTCTAACCTGTTGCCT (site GGGATGTCTAG) | 0.279 |
| GTGATGTCTTGGGTTCTAACCTGTTGCCT (site GTGATGTCTAG) | 2.17 |
| GTGCACTCTTGGGTTCTAACCTGTTGCGG (site GTGCACACTCC) | 0 |
| GTGCACTCTTGGGTTCTAACCTGTTGCGG (site GTGCACTCTCC) | 2.13 |
| GTGCTAACTTGGGTTCTAACCTGTTGCCA (site ATGCTAACTAG) | 0.0637 |
| GTGCTAACTTGGGTTCTAACCTGTTGCCA (site GTGCTAACTTG) | 0.626 |
| GTGGAAGCTTGGGTTCTAACCTGTTGCCA (site GTGAAAGCTTG) | 0.158 |
| GTGGAAGCTTGGGTTCTAACCTGTTGCCA (site GTGGAAGCTTG) | 0.238 |
| GTGGAGTCTTGGGTTCTAACCTGTTGCCT (site GTAGAGTCTAA) | 0.577 |
| GTGGAGTCTTGGGTTCTAACCTGTTGCCT (site GTGGAGTCTAG) | 2.5 |
| GTGGGAACTTGGGTTCTAACCTGTTGCTT (site GTGGGAACTAA) | 1.97 |
| GTGGGAACTTGGGTTCTAACCTGTTGCTT (site TCCTATCCTTC) | 0.0252 |
| GTGGTACCTTGGGTTCTAACCTGTTGCAT (site ACACGGACTTA) | 0.0235 |
| GTGGTACCTTGGGTTCTAACCTGTTGCAT (site GTGGTACCTAT) | 2.48 |
| GTGGTACCTTGGGTTCTAACCTGTTGCCT (site GTGGTAACTAG) | 0.885 |
| GTGGTACCTTGGGTTCTAACCTGTTGCCT (site GTGGTACCTAG) | 2.77 |
| GTGGTACCTTGGGTTCTAACCTGTTGCCT (site GTGGTAGCTAG) | 0.0565 |
| GTGGTACCTTGGGTTCTAACCTGTTGCCT (site GTGGTATCTAG) | 0.391 |

| Sequence | recombinant barcode read abundance (log10) |
| --- | --- |
| GTGGTTCCTTGGGTTCTAACCTGTTGCCT (site GTGGTTCCTAG) | 1.61 |
| GTGGTTCCTTGGGTTCTAACCTGTTGCCT (site GTTGGTCCTAG) | 0.112 |
| GTGTACCCTTGGGTTCTAACCTGTTGCCT (site GAGTACCCTAG) | 0.64 |
| GTGTACCCTTGGGTTCTAACCTGTTGCCT (site GCGTACCCTAG) | 1.13 |
| GTGTACCCTTGGGTTCTAACCTGTTGCCT (site GGGTACCCTAG) | 0.068 |
| GTGTACCCTTGGGTTCTAACCTGTTGCCT (site GTGTACCCTAG) | 0.918 |
| GTGTACCCTTGGGTTCTAACCTGTTGCGC (site GTGTACCCTAC) | 0.587 |
| GTGTACCCTTGGGTTCTAACCTGTTGCGC (site GTGTACCCTCC) | 0.141 |
| GTGTACCCTTGGGTTCTAACCTGTTGCGC (site GTGTACCCTGC) | 3.13 |
| GTGTACCCTTGGGTTCTAACCTGTTGCGC (site GTGTACCCTTC) | 0.31 |
| GTGTACCCTTGGGTTCTAACCTGTTGCGT (site GTGTACCCTAC) | 3.59 |
| GTGTACCCTTGGGTTCTAACCTGTTGCGT (site GTGTACCCTCC) | 1.66 |
| GTGTACCCTTGGGTTCTAACCTGTTGCGT (site GTGTACCCTGC) | 2.29 |
| GTGTACCCTTGGGTTCTAACCTGTTGCGT (site GTGTACCCTTC) | 0.185 |
| GTGTATACTTGGGTTCTAACCTGTTGCAT (site GTGTATACTAT) | 0.589 |
| GTGTATACTTGGGTTCTAACCTGTTGCAT (site TAACTAGCTTA) | 0.0503 |
| GTGTATCCTTGGGTTCTAACCTGTTGCTT (site GTGCCTCCTAA) | 0.0308 |
| GTGTATCCTTGGGTTCTAACCTGTTGCTT (site GTGTATCCTAA) | 0.664 |
| GTGTCAACTTGGGTTCTAACCTGTTGCCT (site GTGTCAACTAG) | 0.343 |
| GTGTCAACTTGGGTTCTAACCTGTTGCCT (site GTGTCACCTAG) | 0.0106 |
| GTGTCAACTTGGGTTCTAACCTGTTGCCT (site GTGTCAGCTAG) | 0.0423 |
| GTGTCAACTTGGGTTCTAACCTGTTGCCT (site GTGTCATCTAG) | 0.0225 |

| Sequence | recombinant barcode read abundance (log10) |
| --- | --- |
| GTGTCAGCTTGGGTTCTAACCTGTTGCCT (site GTGTCAACTAG) | 0.166 |
| GTGTCAGCTTGGGTTCTAACCTGTTGCCT (site GTGTCACCTAG) | 0.383 |
| GTGTCAGCTTGGGTTCTAACCTGTTGCCT (site GTGTCAGCTAG) | 1.56 |
| GTGTCAGCTTGGGTTCTAACCTGTTGCCT (site GTGTCATCTAG) | 0.02 |
| GTGTCATCTTGGGTTCTAACCTGTTGCCT (site GTGTCAACTAG) | 0.142 |
| GTGTCATCTTGGGTTCTAACCTGTTGCCT (site GTGTCACCTAG) | 0.0183 |
| GTGTCATCTTGGGTTCTAACCTGTTGCCT (site GTGTCAGCTAG) | 0.0185 |
| GTGTCATCTTGGGTTCTAACCTGTTGCCT (site GTGTCATCTAG) | 0.935 |
| GTGTCCTCTTGGGTTCTAACCTGTTGCGT (site CAAAAGGCTCG) | 0.039 |
| GTGTCCTCTTGGGTTCTAACCTGTTGCGT (site GTGTCCTCTAC) | 2.58 |
| GTGTCTCCTTGGGTTCTAACCTGTTGCCG (site GTCTCTCCTCG) | 0.0207 |
| GTGTCTCCTTGGGTTCTAACCTGTTGCCG (site GTGTCTCCTCG) | 0.0325 |
| GTGTGTACTTGGGTTCTAACCTGTTGCCA (site GAGTGAACTTG) | 0.0252 |
| GTGTGTACTTGGGTTCTAACCTGTTGCCA (site GTGTGTACTTG) | 0.488 |
| GTGTGTCCTTGGGTTCTAACCTGTTGCAT (site GTGTATCCTAT) | 0.381 |
| GTGTGTCCTTGGGTTCTAACCTGTTGCAT (site GTGTCTCCTAT) | 0.122 |
| GTGTGTCCTTGGGTTCTAACCTGTTGCAT (site GTGTGTCCTAT) | 1.7 |
| GTGTGTCCTTGGGTTCTAACCTGTTGCAT (site GTGTTTCCTAT) | 0.052 |
| GTGTTTCCTTGGGTTCTAACCTGTTGCAT (site GTGTATCCTAT) | 0.654 |
| GTGTTTCCTTGGGTTCTAACCTGTTGCAT (site GTGTCTCCTAT) | 0.081 |
| GTGTTTCCTTGGGTTCTAACCTGTTGCAT (site GTGTGTCCTAT) | 0.0468 |
| GTGTTTCCTTGGGTTCTAACCTGTTGCAT (site GTGTTTCCTAT) | 0.832 |

| Sequence | recombinant barcode read abundance (log10) |
| --- | --- |
| GTTAACTCTTGGGTTCTAACCTGTTGCCT (site GTAAACTCTAG) | 0.2 |
| GTTAACTCTTGGGTTCTAACCTGTTGCCT (site GTCAACTCTAG) | 0.51 |
| GTTAACTCTTGGGTTCTAACCTGTTGCCT (site GTGAACTCTAG) | 0.34 |
| GTTAACTCTTGGGTTCTAACCTGTTGCCT (site GTTAACTCTAG) | 0.877 |
| GTTACACCTTGGGTTCTAACCTGTTGCCT (site GTTACACCTAG) | 0.848 |
| GTTACACCTTGGGTTCTAACCTGTTGCCT (site GTTTCACCTAG) | 0.187 |
| GTTACTACTTGGGTTCTAACCTGTTGCCG (site GTTACTACTCG) | 0.13 |
| GTTACTACTTGGGTTCTAACCTGTTGCCG (site TGGTACCCTTA) | 0.0233 |
| GTTCAGACTTGGGTTCTAACCTGTTGCTT (site CCAAGTCCTTG) | 0.284 |
| GTTCAGACTTGGGTTCTAACCTGTTGCTT (site GTTCAGACTAA) | 1.06 |
| GTTCATCCTTGGGTTCTAACCTGTTGCCT (site GATCATCCTAG) | 0.48 |
| GTTCATCCTTGGGTTCTAACCTGTTGCCT (site GTTCATCCTAG) | 1.02 |
| GTTCGTCCTTGGGTTCTAACCTGTTGCCA (site CCAATGTCTAC) | 0.104 |
| GTTCGTCCTTGGGTTCTAACCTGTTGCCA (site GTTCGTCCTTG) | 0.0879 |
| GTTGGGACTTGGGTTCTAACCTGTTGCCT (site GTTGGAACTAC) | 0.109 |
| GTTGGGACTTGGGTTCTAACCTGTTGCCT (site GTTGGGACTAG) | 2 |
| GTTGGGGCTTGGGTTCTAACCTGTTGCGG (site CTTGGGCCTCC) | 0.019 |
| GTTGGGGCTTGGGTTCTAACCTGTTGCGG (site GTTGGGGCTCC) | 2 |
| GTTGGTCCTTGGGTTCTAACCTGTTGCCT (site GTGGTTCCTAG) | 0.114 |
| GTTGGTCCTTGGGTTCTAACCTGTTGCCT (site GTTGGTCCTAG) | 1.75 |
